Results as given in PMC11514582, “Leveraging the Aggregated Protein Dye YAT2150 for Malaria Chemotherapy” (Pharmaceutics, 2024).

Tests used:
CYP1A2 = biological target: T1, CYP1A2 (Homo sapiens, UniProt P05177); details: cited from earlier work
T1 sequence (P05177 1-516): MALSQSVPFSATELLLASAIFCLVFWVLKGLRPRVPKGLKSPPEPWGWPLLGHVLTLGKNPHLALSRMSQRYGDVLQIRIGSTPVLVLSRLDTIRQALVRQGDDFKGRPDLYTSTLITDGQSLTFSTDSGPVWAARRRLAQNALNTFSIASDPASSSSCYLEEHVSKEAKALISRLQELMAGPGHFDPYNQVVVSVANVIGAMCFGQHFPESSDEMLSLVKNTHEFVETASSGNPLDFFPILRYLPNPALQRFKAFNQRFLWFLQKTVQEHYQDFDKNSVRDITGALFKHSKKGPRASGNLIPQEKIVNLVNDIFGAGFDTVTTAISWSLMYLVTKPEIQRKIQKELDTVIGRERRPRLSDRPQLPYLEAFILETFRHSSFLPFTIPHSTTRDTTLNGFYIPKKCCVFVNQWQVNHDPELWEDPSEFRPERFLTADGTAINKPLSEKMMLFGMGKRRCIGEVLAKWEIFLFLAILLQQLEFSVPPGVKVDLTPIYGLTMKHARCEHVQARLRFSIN

[1] = Cytotoxicity across seven human cell lines; assay type: cell-based; details: range over cell types, read-out: CC50 in seven different human cell lines
Protocol: THP-1 human acute monocytic leukemia cells and NCI-H460 human lung carcinoma cells were grown in RPMI supplemented with 10% FBS. Hep-G2 human hepatocellular carcinoma cells were cultured in Eagle’s minimum essential medium (EMEM) supplemented with 10% FBS. A2780 human ovarian carcinoma cells were grown in RPMI supplemented with 10% FBS and 2 mM L-glutamine. MCF-7 human breast adenocarcinoma cells were cultured in EMEM containing 2 mM L-glutamine and Earle’s balanced salt solution adjusted with 1.5 g/L sodium bicarbonate, 0.1 mM non-essential amino acids, and 1 mM sodium pyruvate and supplemented with 10% FBS. […] Except for Caco-2 and HUVEC, inhibition of cell growth was evaluated using a protocol based on monitoring the transformation into formazan of the tetrazolium salt of MTT (3-(4,5-dimethylthiazol-2-yl)-2,5-diphenyltretrazolium bromide) by metabolically active cells. […] The incubation was continued for an additional 12 to 14 h, and absorbance was measured at 595 nm (Tecan M1000 Infinite® Pro, Tecan Trading AG, Männedorf, Switzerland). The absorbance measurement range was framed between one sample containing 4000 cells in plain growth medium (to determine the stable cell concentration) and another sample containing an equal cell number in growth medium supplemented with growth factors (to measure the maximum cell growth at 96 h). […]

[2] = Human plasma protein binding (Rapid Equilibrium Dialysis); assay type: in vitro ADME; details: pH 7.2, RED, 4 h at 37 °C
Protocol: The assay was carried out by Rapid Equilibrium Dialysis (RED). The compounds were dissolved at 5 μM in human plasma and added to the corresponding insert of the RED device (Thermo Fisher Scientific, Inc., Waltham, MA, USA), and dialysis was performed for 4 h at 37 °C in […], 25 mM tris-HCl, pH 7.2 (Tris BupH^TM, Thermo Fisher Scientific, Inc.). Then, 50-µL aliquots from each chamber were transferred to empty vials, to which 50 µL of dialysis buffer was added. As control, 50 µL of plasma was mixed with 50 µL of buffer. Three hundred µL of acetonitrile was added to all the samples, which were analyzed by ultra-performance liquid chromatography with tandem mass spectrometry as previously described.

[3] = biological target: recombinant human cytochrome P450 enzyme CYP3A4 (Homo sapiens, UniProt P08684); test: biochemical
recombinant human cytochrome P450 enzyme CYP3A4, sequence (P08684 whole entry): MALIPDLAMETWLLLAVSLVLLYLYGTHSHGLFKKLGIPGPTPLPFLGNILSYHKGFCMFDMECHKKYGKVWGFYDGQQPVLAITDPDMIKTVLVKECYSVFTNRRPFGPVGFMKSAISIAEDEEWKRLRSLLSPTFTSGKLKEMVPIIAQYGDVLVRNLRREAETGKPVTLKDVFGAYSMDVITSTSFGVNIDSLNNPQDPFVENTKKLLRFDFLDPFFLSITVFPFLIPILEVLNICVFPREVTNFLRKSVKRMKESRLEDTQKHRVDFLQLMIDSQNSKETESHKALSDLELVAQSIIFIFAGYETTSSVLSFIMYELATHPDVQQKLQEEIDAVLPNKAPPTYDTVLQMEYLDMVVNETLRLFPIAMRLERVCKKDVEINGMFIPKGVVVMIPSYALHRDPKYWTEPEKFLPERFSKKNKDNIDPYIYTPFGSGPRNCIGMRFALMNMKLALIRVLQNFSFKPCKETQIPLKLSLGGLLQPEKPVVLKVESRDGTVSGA

[4] = test system: P. falciparum asexual blood stages; details: read-out: in vitro IC50 in P. falciparum cultures, including gametocytes; cited from earlier work
[5] = Cytotoxicity assay in HUVEC (resazurin); assay type: cell-based; details: human, read-out: HUVEC inhibition (CC50)
[6] = test system: P. falciparum asexual blood stages; details: CC50 in HUVEC / IC50 two-hour incubation in P. falciparum
Protocol: The asexual blood stages of P. falciparum parasites of the 3D7 strain (Malaria Research and Reference Reagent Resource Center, Manassas, VA, USA) were cultured in group B human RBCs at 3% hematocrit, which was kept throughout the experiments, and incubated in RPMIc. Parasites were maintained at 37 °C under an atmosphere of 5% O2, 5% CO2, and 90% N2. […] The parasites were then cultured under standard conditions for 48 h, allowing for a complete replication cycle. After the incubation period, 3 µL of culture from each well was mixed with 197 µL of PBS containing 0.1 µM Syto 11 (Thermo Fisher Scientific, Inc.) to obtain a final concentration of 1 × 10^6 to 10 × 10^6 cells/mL. Parasitemia levels were measured using an LSRFortessa flow cytometer equipped with a standard configuration of four lasers and 20 parameters. Single-cell populations were identified on a forward-side scatter plot. […] The inhibition data were then transformed using sigmoidal fitting to determine IC50.
For stage arrest assays, P. falciparum cultures were tightly synchronized in schizont stages by repeated treatment with 70% Percoll (GE Healthcare, Chicago, IL, USA) [26, 27]. […] Pictures were taken with a Nikon Eclipse 50i microscope equipped with a DS-Fi1 camera (Nikon Corporation, Tokyo, Japan).

CCN(CC)c1ccc(/C=C/c2cc[n+](CCCCCCCCCC[n+]3ccc(/C=C/c4ccc(N(CC)CC)cc4)c(C)c3)cc2C)cc1 [YAT2150]
CYP1A2 inhibition (% at 10 µM) (CYP1A2): around 50% | CC50 [1]: 590 to 18200 nM | fraction unbound at 4 h, 5 μM [2]: 0.003 | IC50 [3]: 1000 nM | IC50 [4]: < 100 nM | CC50 at 48 h [5]: 14800 ± 3800 nM | SI (CC50/IC50) [6]: ~66
